Values quoted from earlier work as cited in paper PMC4838521 (ChemMedChem, 2015).

Target: YopH-NT (Yersinia pestis, UniProt O68720)
Settings: read-out: Kd for YopH-NT

Sequence of YopH-NT (O68720 1-129 limits assumed): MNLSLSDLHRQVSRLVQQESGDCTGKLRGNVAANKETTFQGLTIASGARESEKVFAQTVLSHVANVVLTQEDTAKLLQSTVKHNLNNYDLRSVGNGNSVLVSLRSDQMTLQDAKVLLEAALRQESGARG

| Substance | Kd [µM] |
| --- | --- |
| cyclo-DE(pY)DDPfK | ~15 |
| cyclo-DE(pY)LDPfK | ~23 |
